Laboratory results: patent US20150330990A1, “METHOD OF SCREENING CANDIDATE BIOCHEMICAL ENTITIES TARGETING A TARGET BIOCHEMICAL ENTITY” (BIODESY, INC., priority 2013, published 2015)
Several values for one entry are separate records, joined by “and”; a condition that tells them apart may be missing. Equal values may be shown once.

Key:
alpha-synuclein [1] = molecular target: T1, alpha-synuclein (Homo sapiens, UniProt P37840, A90C); conditions: 1 mM Dopamine, 50 mM Hepes pH 7.4, 100 mM NaCl
Method: An alanine to cysteine mutation (A90C) was introduced into alpha-synuclein to produce a site-specific peptide for dye conjugation, as native alpha-synuclein lacks cysteine residues. A90C alpha-synuclein was then labeled with PyMPO-Maleimide using standard techniques and the location of the modified peptide was verified by mass spectroscopy to be cysteine 90.
For SHG experiments performed with alpha-synuclein, a stock solution of PyMPO-Maleimide-labeled A90C alpha-synuclein was diluted to a final concentration of 5 μM in 50 mM Hepes, pH 7.4, 100 mM NaCl. The 5 μM protein solution was then immobilized onto an aldehyde derivatized glass slide by incubating for one hour at room temperature. Control (buffer) and compound injections were performed in 50 mM Hepes, pH 7.4, 100 mM NaCl.
The experiments were performed with an instrument comprising a mode-locked Ti:sapphire oscillator which provides the fundamental beam necessary to generate the second-harmonic signal (high peak power intensity). We used a Mira 900 Ti:Sapphire ultrafast oscillator (Coherent Inc.) pumped by a Millenia V DPSS laser (Spectra-Physics Corp.). The Ti:sapphire oscillator produced ˜0.7 W of fundamental power at 780 nm with pulse duration of ˜150 fs at 80 MHz. […]

Raf kinase = experiment: SHG signature on Raf kinase surface array (Example 4); assay type: binding; conditions: positive direction
Method: A library comprising 200 distinct compounds and Sorafenib, each with a molecular weight between 400 and 500 g/mol, three aromatic groups, and 2-5 nitrogen atoms, is evaluated for the structure-activity relationship using a surface array comprising more than 200 copies of a Raf kinase. The conformation state of the Raf kinase is measured by […] (SHG) methods described in the present application to establish a baseline in the absence of any compound. Each compound in the library is then contacted with a single copy of the Raf kinase on the array. The conformational state of each copy of the single kinase target is measured by SHG methods. The SHG signature for each compound is determined based on the change in conformational state upon contacting the Raf kinase. Sorafenib has a SHG signature with a 30% shift (i.e. magnitude) in the positive direction. The compounds are grouped, based on their SHG signature and common structural parameters, to generate a structure-activity relationship (SAR) catalog. For example, the 8 compounds that have a signature within 10% in magnitude to that of Sorafenib are cataloged as “molecular weight between 400 and 500 g/mol, three aromatic groups, 2-5 nitrogen atoms, and a signature with +27% to +33% magnitude”. […]

alpha-synuclein [2] = molecular target: T1, alpha-synuclein; experiment: SHG conformational change assay, compound added alone; assay type: binding; design: made in house; conditions: for EC50: 5 μM alpha-synuclein, GraphPad non-linear fit, read-out: EC50 (SHG dose-response curve; binding affinity)
From the text: A single-site cysteine mutant […]) of the alpha-synuclein was constructed and labeled with PyMPO-maleimide (Invitrogen), an SH-active probe that we have used in previous studies ([…], Journal of Chemical Physics 125(7), 2006; […], Physical Chemistry Chemical Physics 9(42):5704-5711, 2007). Mutant […]) protein was previously determined to function like wild-type (Bertoncini C W, et al., Proceedings of the National Academy of Sciences of the United States of America 102(5):1430-1435, 2005). The label was coupled to the protein according to the manufacturer's instructions and purified by gel filtration. Artemis SHG Screening Instrumentation: The Artemis instrument is comprised of a mode-locked Ti:sapphire oscillator that provides the fundamental beam necessary to generate second-harmonic light (high peak power intensity). […] Each of the 16 wells is read in sequence by translating the stage via the control software. Artemis was outfitted with a single-channel liquid injector (Cavro) which delivered a liquid bolus. The liquid bolus volume and delivery speed could be varied. In the experiments described here, we used a volume of 10 μl delivered in 1 second. The measured parameters include the read time before and after ligand injection, integration time, stage temperature (kept at room temperature for all experiments here), and the stage position, relative to the line of the fundamental beam. A custom silicone template with adhesive backing (Arrowleaf Research) was applied to commercially available Xenobind glass microscope slides (Xenopore) using a custom machined assembly jig to define 16 wells of diameter 3 mm (volume 15 μl) on each slide. The template defining the wells is registered to a standard 96-well plate. […] After allowing the protein to absorb, the slide was placed on the […] platform and each well was scanned via SHG to determine the amount of protein in each well. Unbound protein was then removed by washing five times with 20 μL PBS. A post-wash well scan was then performed to determine how much protein was bound to the slide surface. To determine the dose-response curves of Spermine (Sigma), Spermidine (Sigma), and COMPOUND A, serial dilutions of each compound were used to prepare stock solutions. Each compound was added to a well to produce the indicated final concentration. […] For COMPOUND A the concentration range was 5 μ[…], and 1 mM. The concentrations were then converted to the log scale and the data plotted in GraphPad Prism V5 using the non-linear regression fit for log(agonist) vs response with variable slope. […] The EC50 values were calculated by the software. Control experiments were performed on each compound to empirically determine the time frame required for each compound to produce a maximal response (Tmax). […] The resulting value was reported as the percent change in SHG intensity due to compound addition.

alpha-synuclein [3] = molecular target: T1, alpha-synuclein; experiment: SHG competition assays (spermine-spermidine, spermine-COMPOUND A, analog-spermine, library screen); assay type: binding; design: made in house; conditions: 3 mM Spermidine added after 25 minutes incubation with 1 mM Spermine
Method: The Maybridge Ro3 fragment library contains over 1,000 pharmacophoric compounds of 95% purity solubilized at 50 mM in DMSO. For fragment screening experiments, a single compound from the library was diluted in PBS and placed in each well at a final concentration of 1 mM ([…]).
After 25 minutes, 3 mM spermidine was added to each well and the resulting change in SHG intensity was measured.
To calculate the percent change, the SHG intensity as measured just prior to injection (T0) was subtracted from the SHG intensity at Tmax and then divided by T0 according to the following equation: SHG %=(ISHG@Tmax−ISHG@T0)/ISHG@T0.
A control buffer injection was used to determine the threshold for SHG intensity change and was calculated in a similar manner to above. The net SHG intensity change for each compound was then reported by subtracting the buffer threshold value from the SHG intensity value produced by compound addition. The resulting value was reported as the percent change in SHG intensity due to compound addition.
Each well was loaded with 5 μM alpha-synuclein and pre-incubated with one fragment compound from the Maybridge Ro3 library for 30 minutes at 1 mM in assay buffer. […] As shown in FIG. 2C (right trace), addition of 1 mM COMPOUND A to alpha-synuclein changes the SHG baseline signal immediately.

alpha-synuclein [4] = molecular target: T2, alpha-synuclein (Homo sapiens, UniProt P37840); experiment: Thioflavin T assay / fibrillization of alpha-synuclein in vitro; assay type: biochemical
alpha-synuclein [5] = molecular target: T2, alpha-synuclein; conditions: cited from earlier work

NCCc1ccc(O)c(O)c1 [Dopamine]
average percent change in the SHG intensity of alpha-synuclein (alpha-synuclein [1]): 3.375±1.13%

CNC(=O)c1cc(Oc2ccc(NC(=O)Nc3ccc(Cl)c(C(F)(F)F)c3)cc2)ccn1 [Sorafenib]
SHG signature shift (magnitude) (Raf kinase): 30%

NCCCCNCCCN [Spermidine]
EC50 (alpha-synuclein [2]): 1110 µM
increase in SHG intensity (alpha-synuclein [2]; 3 mM compound added alone): 19.88±2.37%
logEC50 (alpha-synuclein [2]; SHG dose-response curve): −2.95±0.19
change in SHG intensity (alpha-synuclein [3]): 5.1±0.81%

NCCCNCCCCNCCCN [Spermine]
increase of the rate of aggregation of alpha-synuclein in vitro (alpha-synuclein [4]): roughly two-fold
EC50 (alpha-synuclein [2]): 840 µM and 790 µM
Compound Only (% Shift/% Change) (alpha-synuclein [2]; 1 mM): 30.23 ± 3.69%
change in SHG intensity (alpha-synuclein [2]; 1 mM compound added alone to 5 μM alpha-synuclein): 25.58±4.33% and 30.23±3.69%
change in the SHG intensity (alpha-synuclein [2]; 5 mM compound added alone to 5 μM alpha-synuclein): 36.26±4.97% and 37.44±6.40%
factor of increase of aggregation rate in vitro (alpha-synuclein [5]): 10^5

Phthalocyanine Tetrasulfonate [PcTs]
change in the SHG intensity of alpha-synuclein (alpha-synuclein [2]; treatment with 10 μM PcTS): −79.6±2.7%
